Results on 19 compounds are retold here after patent publication US8461328B2, “Tricyclic heterocyclic compounds, compositions and methods of use thereof” (Genentech, Inc., priority 2010, dated 2013).

Holding throughout (format): biochemical
In experiment [1] the target is T1, JAK1 (Homo sapiens, UniProt P23458).
T1 construct: made in house; host or cells: SF9 insect cells (baculovirus)
The experiment is described as follows: JAK1 inhibition (Table 4). Particulars: read-out: JAK1 Ki.

For experiment [2], the target named is T2, TYK2 (Homo sapiens, UniProt P29597).
T2 construct: made in house; host or cells: SF9 insect cells (baculovirus)
T2 sequence (P29597 873-1187): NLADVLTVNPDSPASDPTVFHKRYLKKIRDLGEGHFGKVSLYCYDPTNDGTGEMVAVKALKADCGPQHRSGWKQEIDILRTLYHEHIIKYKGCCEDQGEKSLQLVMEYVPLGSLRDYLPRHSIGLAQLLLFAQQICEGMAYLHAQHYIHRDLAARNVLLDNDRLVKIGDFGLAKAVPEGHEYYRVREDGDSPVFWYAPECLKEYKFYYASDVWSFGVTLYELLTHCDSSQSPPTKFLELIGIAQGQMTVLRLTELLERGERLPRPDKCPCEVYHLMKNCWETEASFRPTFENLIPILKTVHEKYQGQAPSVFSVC
Put plainly: TYK2 inhibition (Table 4).

Experiment [3] addresses T3, JAK3 (Homo sapiens, UniProt P52333).
T3 construct: made in house; host or cells: SF9 insect cells (baculovirus)
The experiment is described as follows: JAK3 inhibition (Table 4). Particulars: read-out: JAK3 Ki.

Experiment [4] deals with T4, JAK2 (Homo sapiens, UniProt O60674).
T4 construct: made in house; host or cells: SF9 insect cells (baculovirus)
Put plainly: JAK2 inhibition (Table 4). Particulars: read-out: JAK2 Ki.

pKi: −log10 of the molar value.

What is called pKi is the negative decadic logarithm of the Ki, by convention in mol/L.

T3 sequence (P52333 783-1124): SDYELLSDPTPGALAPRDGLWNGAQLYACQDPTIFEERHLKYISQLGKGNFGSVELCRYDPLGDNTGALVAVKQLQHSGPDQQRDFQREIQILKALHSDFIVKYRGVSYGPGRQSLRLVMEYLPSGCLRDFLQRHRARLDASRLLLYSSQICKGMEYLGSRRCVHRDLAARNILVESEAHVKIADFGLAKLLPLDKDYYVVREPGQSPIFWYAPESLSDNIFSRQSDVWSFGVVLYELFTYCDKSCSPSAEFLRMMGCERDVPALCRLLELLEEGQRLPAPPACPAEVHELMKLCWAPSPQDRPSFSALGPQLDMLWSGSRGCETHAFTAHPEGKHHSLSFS
T4 sequence (O60674 812-1132): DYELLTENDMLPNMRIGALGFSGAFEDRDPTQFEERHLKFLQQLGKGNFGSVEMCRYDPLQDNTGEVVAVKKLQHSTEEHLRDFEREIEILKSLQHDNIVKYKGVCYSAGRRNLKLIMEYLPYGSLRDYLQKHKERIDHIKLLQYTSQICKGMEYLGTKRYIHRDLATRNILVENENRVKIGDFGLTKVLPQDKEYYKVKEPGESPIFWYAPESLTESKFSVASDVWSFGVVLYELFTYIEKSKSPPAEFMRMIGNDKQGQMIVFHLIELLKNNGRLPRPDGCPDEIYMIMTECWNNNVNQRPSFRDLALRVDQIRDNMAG
T1 sequence (P23458 852-1154): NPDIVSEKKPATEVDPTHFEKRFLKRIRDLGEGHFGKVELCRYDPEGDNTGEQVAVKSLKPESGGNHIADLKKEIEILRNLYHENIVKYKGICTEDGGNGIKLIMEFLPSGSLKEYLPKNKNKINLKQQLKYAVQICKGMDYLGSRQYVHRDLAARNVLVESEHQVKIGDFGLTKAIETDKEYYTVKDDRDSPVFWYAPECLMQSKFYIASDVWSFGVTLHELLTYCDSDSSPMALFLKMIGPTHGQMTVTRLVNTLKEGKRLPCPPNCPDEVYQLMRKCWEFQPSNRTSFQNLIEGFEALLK

For `Cc1cc(CN2CCC(n3c(C(C)O)nc4cnc5[nH]ccc5c43)C(F)C2)no1` (stereo not shown) [Example 911, 1-{1-[3-Fluoro-1-(5-methyl-isoxazol-3-ylmethyl)-piperidin-4-yl]-1,6-dihydro-1,3,5,6-tetraaza-as-indacen-2-yl}-ethanol], the pKi in experiment [1] was 8.48; in experiment [2], 6.75; in experiment [3], 8.24; in experiment [4], 7.42.
As to `Cc1noc(CN2CCC(n3c(C(C)O)nc4cnc5[nH]ccc5c43)C(F)C2)n1` (stereo not shown) [Example 912, 1-{1-[3-Fluoro-1-(3-methyl-[1,2,4]oxadiazol-5-ylmethyl)-piperidin-4-yl]-1,6-dihydro-1,3,5,6-tetraaza-as-indacen-2-yl}-ethanol], the negative-log Ki (pKi) is 8.47 in experiment [1], 6.75 in experiment [2], 8.11 in experiment [3] and 7.37 in experiment [4].
In the case of `CCN1CCC(n2c(CNS(C)(=O)=O)nc3cnc4[nH]ccc4c32)C(F)(F)C1` (stereo not shown) [Example 915, N-[1-(1-Ethyl-3,3-difluoro-piperidin-4-yl)-1,6-dihydro-1,3,5,6-tetraaza-as-indacen-2-ylmethyl]-methanesulfonamide], the pKi in experiment [1] is 8.26; in experiment [2], 7.00; in experiment [3] it was 7.65; in experiment [4], 7.55.
Take `C[C@@H](O)c1nc2cnc3[nH]ccc3c2n1C1CCN(CC(F)F)CC1` [Example 916, (R)-1-{1-[1-(2,2-Difluoro-ethyl)-piperidin-4-yl]-1,6-dihydro-1,3,5,6-tetraaza-as-indacen-2-yl}-ethanol]: the pKi is 8.17 in experiment [1], 7.11 in experiment [2], 7.20 in experiment [3] and 7.28 in experiment [4].
Turning to `CC(O)c1nc2cnc3[nH]ccc3c2n1C1CC2CCC(C1)N2` (stereo not shown) [Example 919, 1-[1-(8-Aza-bicyclo[3.2.1]oct-3-yl)-1,6-dihydro-1,3,5,6-tetraaza-as-indacen-2-yl]-ethanol], the pKi was 7.97 in experiment [1], 6.58 in experiment [2], 6.32 in experiment [3] and 6.36 in experiment [4].
`CC(=O)NCc1nc2cnc3[nH]ccc3c2n1C1CCN(CC(F)(F)F)CC1` [Example 920, N-{1-[1-(2,2,2-Trifluoro-ethyl)-piperidin-4-yl]-1,6-dihydro-1,3,5,6-tetraaza-as-indacen-2-ylmethyl}-acetamide]: the negative logarithm of the Ki (pKi) was 7.89 in experiment [1], 6.74 in experiment [2], 7.06 in experiment [3] and 7.03 in experiment [4].
Taken in the same sequence, the figures for `CC(=O)NCc1nc2cnc3[nH]ccc3c2n1C1CCN(CCF)CC1` [Example 921, N-{1-[1-(2-Fluoro-ethyl)-piperidin-4-yl]-1,6-dihydro-1,3,5,6-tetraaza-as-indacen-2-ylmethyl}-acetamide] were 7.88, 6.72, 7.15 and 6.93.
Taken in the same sequence, the figures for `O=S1(=O)CCCN1CCc1nc2cnc3[nH]ccc3c2n1C1CCCCC1` [Example 922, 1-Cyclohyl-2-[2-(1,1-dioxo-1-isothiazolidin-2-yl)-ethyl]-1,6-dihydro-1,3,5,6-tetraaza-as-indacene] were 7.88, 6.84, 7.29 and 7.30.
Taken in the same sequence, the figures for `C[C@@H](O)c1nc2cnc3[nH]ccc3c2n1C1CCN(Cc2ncco2)CC1` [Example 923, (R)-1-[1-(1-Oxazol-2-ylmethyl-piperidin-4-yl)-1,6-dihydro-1,3,5,6-tetraaza-as-indacen-2-yl]-ethanol] were 7.77, 6.44, 7.43 and 6.82.
On to `O=C(NCc1nc2cnc3[nH]ccc3c2n1C1CCCCC1)C1CCC1` [Example 924, Cyclobutanecarboxylic acid (1-cyclohyl-1,6-dihydro-1,3,5,6-tetraaza-as-indacen-2-ylmethyl)-amide], for which the pKi in experiment [1] is 7.75; in experiment [2], 7.14; in experiment [3], 7.27; in experiment [4] it was 7.02.
Regarding `CS(=O)(=O)NCc1nc2cnc3[nH]ccc3c2n1C1CC2CCC1O2` (stereo not shown) [Example 925, N-[1-(7-Oxa-bicyclo[2.2.1]hept-2-yl)-1,6-dihydro-1,3,5,6-tetraaza-as-indacen-2-ylmethyl]-methanesulfonamide], the negative-log Ki (pKi) was 7.52 in experiment [1], 6.47 in experiment [2], 6.26 in experiment [3] and 6.60 in experiment [4].
`C[C@@H](O)c1nc2cnc3[nH]ccc3c2n1[C@H]1CCNC1` [Example 926, (R)-1-((S)-1-Pyrrolidin-3-yl-1,6-dihydro-1,3,5,6-tetraaza-as-indacen-2-yl)-ethanol]: the pKi is 7.45 in experiment [1], 5.80 in experiment [2], 5.94 in experiment [3] and 5.61 in experiment [4].
As to `CCOC(=O)N1CCC(n2c([C@@H](C)O)nc3cnc4[nH]ccc4c32)CC1` [Example 927], the pKi in experiment [1] was 6.75; in experiment [2] it was 6.15; in experiment [3], 6.42; in experiment [4], 6.21.
For the compound `Cc1nc2cnc3[nH]ccc3c2n1C1CN2CCC1CC2` (stereo not shown) [Example 928, 1-(1-Aza-bicyclo[2.2.2]oct-3-yl)-2-methyl-1,6-dihydro-1,3,5,6-tetraaza-as-indacene], the pKi in experiment [1] was 6.90; in experiment [2], 6.05; in experiment [3], 6.35; in experiment [4], 6.69.
As to `COC(=O)N1CCC(n2c([C@@H](C)O)nc3cnc4[nH]ccc4c32)CC1` [Example 929, 4-[2-((R)-1-Hydroxy-ethyl)-6H-1,3,5,6-tetraaza-as-indacen-1-yl]-piperidine-1-carboxylic acid methyl ester], the pKi in experiment [1] was 6.98; in experiment [2], 6.55; in experiment [3], 6.73; in experiment [4], 6.24.
`C[C@@H](O)c1nc2cnc3[nH]ccc3c2n1[C@H]1CCN(S(C)(=O)=O)C1` [Example 930, (R)-1-[1-((S)-1-Methanesulfonyl-pyrrolidin-3-yl)-1,6-dihydro-1,3,5,6-tetraaza-as-indacen-2-yl]-ethanol]: the pKi was 7.06 in experiment [1], 6.46 in experiment [2], 6.72 in experiment [3] and 6.02 in experiment [4].
Taken in the same sequence, the figures for `CCOC(=O)N1CC[C@H](n2c([C@@H](C)O)nc3cnc4[nH]ccc4c32)C1` [Example 931, (S)-3-[2-((R)-1-Hydroxy-ethyl)-6H-1,3,5,6-tetraaza-as-indacen-1-yl]-pyrrolidine-1-carboxylic acid ethyl ester] were 7.19, 6.63, 6.04 and 5.73.
For `OC1CCN(Cc2nc3cnc4[nH]ccc4c3n2C2CCCCC2)CC1` [Example 932, 1-(1-Cyclohyl-1,6-dihydro-1,3,5,6-tetraaza-as-indacen-2-ylmethyl)-piperidin-4-ol], the pKi in experiment [1] was 7.39; in experiment [2], 6.45; in experiment [3], 5.98; in experiment [4] it was 6.24.
For `CC(O)c1nc2cnc3[nH]ccc3c2n1C1CCN(Cc2cnco2)CC1F` (stereo not shown) [Example 933, 1-[1-(3-Fluoro-1-oxazol-5-ylmethyl-piperidin-4-yl)-1,6-dihydro-1,3,5,6-tetraaza-as-indacen-2-yl]-ethanol], the negative-log Ki (pKi) in experiment [1] is 8.74; in experiment [2], 7.26; in experiment [3], 7.95; in experiment [4], 7.41.
